Test results published in ChEMBL document CHEMBL2057203, “Synthesis and evaluation of novel F-18 labeled 4-aminoquinazoline derivatives: potential PET imaging agents for tumor detection” (Bioorg Med Chem Lett, 2012).

Tests used:
[1] = n-octanol-PBS partition coefficient, logP of the compound; format: physicochemical
Plasma = experiment: Metabolic stability in mouse plasma after 2 hrs by radio-HPLC analysis; format: ADME, cell-free
[2] = Chemical stability in PBS after 2 hrs by radio-HPLC analysis at room temperature; format: physicochemical; details: buffer
[3] = Chemical stability in PBS after 2 hrs by radio-HPLC analysis at 60 degC; format: physicochemical; details: buffer
Heart [4] = experiment: Biodistribution in S180 tumor-bearing mouse heart at 8 to 10 uCi, iv after 5 mins by gamma counting; format: ADME, organism-based; details: in vivo
Liver [5] = experiment: Biodistribution in S180 tumor-bearing mouse liver at 8 to 10 uCi, iv after 5 mins by gamma counting; format: ADME, organism-based; details: in vivo
Spleen [6] = experiment: Biodistribution in S180 tumor-bearing mouse spleen at 8 to 10 uCi, iv after 5 mins by gamma counting; format: ADME, organism-based; details: in vivo
Lung [7] = experiment: Biodistribution in S180 tumor-bearing mouse lungs at 8 to 10 uCi, iv after 5 mins by gamma counting; format: ADME, organism-based; details: in vivo
Kidney [8] = experiment: Biodistribution in S180 tumor-bearing mouse kidneys at 8 to 10 uCi, iv after 5 mins by gamma counting; format: ADME, organism-based; details: in vivo
Stomach [9] = experiment: Biodistribution in S180 tumor-bearing mouse stomach at 8 to 10 uCi, iv after 5 mins by gamma counting; format: ADME, organism-based; details: in vivo
Muscle tissue [10] = experiment: Biodistribution in S180 tumor-bearing mouse muscle at 8 to 10 uCi, iv after 5 mins by gamma counting; format: ADME, organism-based; details: in vivo
Brain [11] = experiment: Biodistribution in S180 tumor-bearing mouse brain at 8 to 10 uCi, iv after 5 mins by gamma counting; format: ADME, organism-based; details: in vivo
Mus musculus [12] = experiment: Biodistribution in S180 cells xenografted in mouse tumor at 8 to 10 uCi, iv after 5 mins by gamma counting; format: ADME, organism-based, Neoplasm, CCRF S-180; details: in vivo
Blood [13] = experiment: Biodistribution in S180 tumor-bearing mouse blood at 8 to 10 uCi, iv after 5 mins by gamma counting; format: ADME, organism-based; details: in vivo
Nucleic Acid [14] = experiment: Ratio of drug level in tumor to muscle in S180 tumor-bearing mouse at 8 to 10 uCi, iv at 5 mins by gamma counting; format: ADME, organism-based; details: in vivo
Nucleic Acid [15] = experiment: Ratio of drug level in tumor to blood in S180 tumor-bearing mouse at 8 to 10 uCi, iv at 5 mins by gamma counting; format: ADME, organism-based; details: tumour
Nucleic Acid [16] = experiment: Ratio of drug level in tumor to brain in S180 tumor-bearing mouse at 8 to 10 uCi, iv at 5 mins by gamma counting; format: ADME, organism-based; details: in vivo
Heart [17] = experiment: Biodistribution in S180 tumor-bearing mouse heart at 8 to 10 uCi, iv after 30 mins by gamma counting; format: ADME, organism-based; details: in vivo, 0.5 h
Liver [18] = experiment: Biodistribution in S180 tumor-bearing mouse liver at 8 to 10 uCi, iv after 30 mins by gamma counting; format: ADME, organism-based; details: in vivo, 0.5 h
Spleen [19] = experiment: Biodistribution in S180 tumor-bearing mouse spleen at 8 to 10 uCi, iv after 30 mins by gamma counting; format: ADME, organism-based; details: in vivo, 0.5 h
Lung [20] = experiment: Biodistribution in S180 tumor-bearing mouse lung at 8 to 10 uCi, iv after 30 mins by gamma counting; format: ADME, organism-based; details: in vivo, 0.5 h
Kidney [21] = experiment: Biodistribution in S180 tumor-bearing mouse kidney at 8 to 10 uCi, iv after 30 mins by gamma counting; format: ADME, organism-based; details: in vivo, 0.5 h
Stomach [22] = experiment: Biodistribution in S180 tumor-bearing mouse stomach at 8 to 10 uCi, iv after 30 mins by gamma counting; format: ADME, organism-based; details: in vivo, 0.5 h
Muscle tissue [23] = experiment: Biodistribution in S180 tumor-bearing mouse muscle at 8 to 10 uCi, iv after 30 mins by gamma counting; format: ADME, organism-based; details: in vivo, 0.5 h
Brain [24] = experiment: Biodistribution in S180 tumor-bearing mouse brain at 8 to 10 uCi, iv after 30 mins by gamma counting; format: ADME, organism-based; details: in vivo, 0.5 h
Mus musculus [25] = experiment: Biodistribution in S180 cells xenografted in mouse tumor at 8 to 10 uCi, iv after 30 mins by gamma counting; format: ADME, organism-based, Neoplasm, CCRF S-180; details: in vivo, 0.5 h
Blood [26] = experiment: Biodistribution in S180 tumor-bearing mouse blood at 8 to 10 uCi, iv after 30 mins by gamma counting; format: ADME, organism-based; details: in vivo, 0.5 h
Nucleic Acid [27] = experiment: Ratio of drug level in tumor to muscle in S180 tumor-bearing mouse at 8 to 10 uCi, iv at 30 mins by gamma counting; format: ADME, organism-based; details: in vivo, 0.5 h
Nucleic Acid [28] = experiment: Ratio of drug level in tumor to blood in S180 tumor-bearing mouse at 8 to 10 uCi, iv at 30 mins by gamma counting; format: ADME, organism-based; details: tumour, 0.5 h
Nucleic Acid [29] = experiment: Ratio of drug level in tumor to brain in S180 tumor-bearing mouse at 8 to 10 uCi, iv at 30 mins by gamma counting; format: ADME, organism-based; details: in vivo, 0.5 h
Heart [30] = experiment: Biodistribution in S180 tumor-bearing mouse heart at 8 to 10 uCi, iv after 60 mins by gamma counting; format: ADME, organism-based; details: in vivo, 1 h
Liver [31] = experiment: Biodistribution in S180 tumor-bearing mouse liver at 8 to 10 uCi, iv after 60 mins by gamma counting; format: ADME, organism-based; details: in vivo, 1 h
Spleen [32] = experiment: Biodistribution in S180 tumor-bearing mouse spleen at 8 to 10 uCi, iv after 60 mins by gamma counting; format: ADME, organism-based; details: in vivo, 1 h
Lung [33] = experiment: Biodistribution in S180 tumor-bearing mouse lung at 8 to 10 uCi, iv after 60 mins by gamma counting; format: ADME, organism-based; details: in vivo, 1 h
Kidney [34] = experiment: Biodistribution in S180 tumor-bearing mouse kidney at 8 to 10 uCi, iv after 60 mins by gamma counting; format: ADME, organism-based; details: in vivo, 1 h
Stomach [35] = experiment: Biodistribution in S180 tumor-bearing mouse stomach at 8 to 10 uCi, iv after 60 mins by gamma counting; format: ADME, organism-based; details: in vivo, 1 h
Muscle tissue [36] = experiment: Biodistribution in S180 tumor-bearing mouse muscle at 8 to 10 uCi, iv after 60 mins by gamma counting; format: ADME, organism-based; details: in vivo, 1 h
Brain [37] = experiment: Biodistribution in S180 tumor-bearing mouse brain at 8 to 10 uCi, iv after 60 mins by gamma counting; format: ADME, organism-based; details: in vivo, 1 h
Mus musculus [38] = experiment: Biodistribution in S180 cells xenografted in mouse tumor at 8 to 10 uCi, iv after 60 mins by gamma counting; format: ADME, organism-based, Neoplasm, CCRF S-180; details: in vivo, 1 h
Blood [39] = experiment: Biodistribution in S180 tumor-bearing mouse blood at 8 to 10 uCi, iv after 60 mins by gamma counting; format: ADME, organism-based; details: in vivo, 1 h
Nucleic Acid [40] = experiment: Ratio of drug level in tumor to muscle in S180 tumor-bearing mouse at 8 to 10 uCi, iv at 60 mins by gamma counting; format: ADME, organism-based; details: in vivo, 1 h
Nucleic Acid [41] = experiment: Ratio of drug level in tumor to blood in S180 tumor-bearing mouse at 8 to 10 uCi, iv at 60 mins by gamma counting; format: ADME, organism-based; details: tumour, 1 h
Nucleic Acid [42] = experiment: Ratio of drug level in tumor to brain in S180 tumor-bearing mouse at 8 to 10 uCi, iv at 60 mins by gamma counting; format: ADME, organism-based; details: in vivo, 1 h
Heart [43] = experiment: Biodistribution in S180 tumor-bearing mouse heart at 8 to 10 uCi, iv after 120 mins by gamma counting; format: ADME, organism-based; details: in vivo, 2 h
Liver [44] = experiment: Biodistribution in S180 tumor-bearing mouse liver at 8 to 10 uCi, iv after 120 mins by gamma counting; format: ADME, organism-based; details: in vivo, 2 h
Spleen [45] = experiment: Biodistribution in S180 tumor-bearing mouse spleen at 8 to 10 uCi, iv after 120 mins by gamma counting; format: ADME, organism-based; details: in vivo, 2 h
Lung [46] = experiment: Biodistribution in S180 tumor-bearing mouse lung at 8 to 10 uCi, iv after 120 mins by gamma counting; format: ADME, organism-based; details: in vivo, 2 h
Kidney [47] = experiment: Biodistribution in S180 tumor-bearing mouse kidney at 8 to 10 uCi, iv after 120 mins by gamma counting; format: ADME, organism-based; details: in vivo, 2 h
Stomach [48] = experiment: Biodistribution in S180 tumor-bearing mouse stomach at 8 to 10 uCi, iv after 120 mins by gamma counting; format: ADME, organism-based; details: in vivo, 2 h
Muscle tissue [49] = experiment: Biodistribution in S180 tumor-bearing mouse muscle at 8 to 10 uCi, iv after 120 mins by gamma counting; format: ADME, organism-based; details: in vivo, 2 h
Brain [50] = experiment: Biodistribution in S180 tumor-bearing mouse brain at 8 to 10 uCi, iv after 120 mins by gamma counting; format: ADME, organism-based; details: in vivo, 2 h
Mus musculus [51] = experiment: Biodistribution in S180 cells xenografted in mouse tumor at 8 to 10 uCi, iv after 120 mins by gamma counting; format: ADME, organism-based, Neoplasm, CCRF S-180; details: in vivo, 2 h
Blood [52] = experiment: Biodistribution in S180 tumor-bearing mouse blood at 8 to 10 uCi, iv after 120 mins by gamma counting; format: ADME, organism-based; details: in vivo, 2 h
Nucleic Acid [53] = experiment: Ratio of drug level in tumor to muscle in S180 tumor-bearing mouse at 8 to 10 uCi, iv at 120 mins by gamma counting; format: ADME, organism-based; details: in vivo, 2 h
Nucleic Acid [54] = experiment: Ratio of drug level in tumor to blood in S180 tumor-bearing mouse at 8 to 10 uCi, iv at 120 mins by gamma counting; format: ADME, organism-based; details: tumour, 2 h
Nucleic Acid [55] = experiment: Ratio of drug level in tumor to brain in S180 tumor-bearing mouse at 8 to 10 uCi, iv at 120 mins by gamma counting; format: ADME, organism-based; details: in vivo, 2 h

logP [1]: 0.39
Stability (Plasma): Stable
Stability [2]: Stable
Stability [3]: Stable
Drug uptake (Heart [4]): 4.4 % ID/g
Drug uptake (Liver [5]): 11.34 % ID/g
Drug uptake (Spleen [6]): 4.5 % ID/g
Drug uptake (Lung [7]): 4.6 % ID/g
Drug uptake (Kidney [8]): 14.25 % ID/g
Drug uptake (Stomach [9]): 5.35 % ID/g
Drug uptake (Muscle tissue [10]): 5.12 % ID/g
Drug uptake (Brain [11]): 1.97 % ID/g
Drug uptake (Mus musculus [12]): 1.87 % ID/g
Drug uptake (Blood [13]): 7 % ID/g
Ratio (Nucleic Acid [14]): 0.37
Ratio (Nucleic Acid [15]): 0.27
Ratio (Nucleic Acid [16]): 0.95
Drug uptake (Heart [17]): 5.02 % ID/g
Drug uptake (Liver [18]): 5.38 % ID/g
Drug uptake (Spleen [19]): 3.67 % ID/g
Drug uptake (Lung [20]): 4.57 % ID/g
Drug uptake (Kidney [21]): 5.2 % ID/g
Drug uptake (Stomach [22]): 11.87 % ID/g
Drug uptake (Muscle tissue [23]): 4.18 % ID/g
Drug uptake (Brain [24]): 3.15 % ID/g
Drug uptake (Mus musculus [25]): 5.8 % ID/g
Drug uptake (Blood [26]): 5.85 % ID/g
Ratio (Nucleic Acid [27]): 1.39
Ratio (Nucleic Acid [28]): 0.99
Ratio (Nucleic Acid [29]): 1.84
Drug uptake (Heart [30]): 4.26 % ID/g
Drug uptake (Liver [31]): 4.22 % ID/g
Drug uptake (Spleen [32]): 3.23 % ID/g
Drug uptake (Lung [33]): 3.75 % ID/g
Drug uptake (Kidney [34]): 3.99 % ID/g
Drug uptake (Stomach [35]): 4.44 % ID/g
Drug uptake (Muscle tissue [36]): 3.35 % ID/g
Drug uptake (Brain [37]): 2.94 % ID/g
Drug uptake (Mus musculus [38]): 5.51 % ID/g
Drug uptake (Blood [39]): 5.07 % ID/g
Ratio (Nucleic Acid [40]): 1.64
Ratio (Nucleic Acid [41]): 1.09
Ratio (Nucleic Acid [42]): 1.87
Drug uptake (Heart [43]): 2.52 % ID/g
Drug uptake (Liver [44]): 2.58 % ID/g
Drug uptake (Spleen [45]): 2.39 % ID/g
Drug uptake (Lung [46]): 2.57 % ID/g
Drug uptake (Kidney [47]): 2.23 % ID/g
Drug uptake (Stomach [48]): 3.64 % ID/g
Drug uptake (Muscle tissue [49]): 1.74 % ID/g
Drug uptake (Brain [50]): 1.98 % ID/g
Drug uptake (Mus musculus [51]): 4.71 % ID/g
Drug uptake (Blood [52]): 3.61 % ID/g
Ratio (Nucleic Acid [53]): 2.71
Ratio (Nucleic Acid [54]): 1.3
Ratio (Nucleic Acid [55]): 2.38
Structure (SMILES): COc1cc2ncnc(Nc3ccc(F)c(Cl)c3)c2cc1OCC[18F]
